According to patent publication US6583170B1, “2-Phenyl-1-[4-(amino-1-yl-alk-1-ynyl)-benzyl]-1H-indol-5-ol and estrogen formulations” (Wyeth, priority 1998, dated 2003):
Values joined by “and” are separate entries in the source; they are usually repeats but may differ in a detail not shown here. Identical values can stand only once.

What was measured:
[1] = test system: uterus wet weight, immature Sprague-Dawley rats; experiment: Rat Uterotrophic/Antiuterotrophic Bioassay; assay type: in vivo; details: day 4; for uterine wet weight, 10 μG: 10 uG compound daily ip; for uterine wet weight, 10 μG / uterine wet weight, 100 μG / uterine wet weight, 100 μG + 1 μG 17β-estradiol: immature female rats; for uterine wet weight, 100 μG: 100 uG compound daily ip; for uterine wet weight, 100 μG + 1 μG 17β-estradiol: 100 uG compound + 1 uG 17β-estradiol daily ip
Protocol: Rat Uterotrophic/Antiuterotrophic Bioassay The estrogenic and antiestrogenic properties of the compounds were determined in an immature rat uterotrophic assay (4 day) that (as described previously by L. J. Black and R. L. Goode, Life Sciences, 26, 1453 (1980)). Immature Sprague-Dawley rats (female, 18 days old) were tested in groups of six. […] A small section of one horn was submitted for histology and the remainder used to isolate total RNA in order to evaluate complement component 3 gene expression.

Ishikawa cells = experiment: Ishikawa Cell Alkaline Phosphatase Assay; assay type: cell-based, human; details: compound alone; percent of response related to 1 nM 17β-estradiol; 48 h
Protocol: Ishikawa Cell Alkaline Phosphatase Assay Cell Maintenance and Treatment: […] Cells were treated for 48 h prior to assay. […] Sample population for at each dose was n=8. Alkaline Phosphatase Assay: […] Plates are placed at -80° C. for a minimum of 15 minutes. Plates are thawed at 37° C. followed by the addition of 150 μL of 0.1 M Tris-HCl, pH 9.8, containing 4 mM para-nitrophenylphosphate (pNPP) to each well (final concentration, 3 mM pNPP). Absorbance and slope calculations were made using the […] Application program (Bio-Tek Instruments, Inc., Winooski, VT.). […] Various compounds were assayed for estrogenic activity by the alkaline phosphatase method and corresponding ED50 values (95% C.I.) were calculated. The four listed in the following were used as as reference standards: A description of these methods is described by Holinka, […]., Kuramoto, H. and Gurpide, E. (1986) Effects of steroid hormones and antisteroids on alkaline phosphatase activity in human endometrial cancer cells (Ishikawa Line). Cancer Research, 46:2771-2774, and by […]. and […] simple and sensitive microtiter plate estrogen bioassay based on stimulation alkaline phosphatase in Ishikawa cells; […] Endocrinology, 6:2757-2762.

estrogen receptor = biological target: T1, estrogen receptor (Homo sapiens, UniProt P03372); experiment: In Vitro Estrogen Receptor Binding Assay ([3H]-17β-estradiol competition); details: RBA: 17β-estradiol=100; cytosol of CHO cells overexpressing the estrogen receptor
T1 construct: expressed in transfected cells; host or cells: CHO cells, ribosome-free cytosol
T1 sequence (P03372 1-595): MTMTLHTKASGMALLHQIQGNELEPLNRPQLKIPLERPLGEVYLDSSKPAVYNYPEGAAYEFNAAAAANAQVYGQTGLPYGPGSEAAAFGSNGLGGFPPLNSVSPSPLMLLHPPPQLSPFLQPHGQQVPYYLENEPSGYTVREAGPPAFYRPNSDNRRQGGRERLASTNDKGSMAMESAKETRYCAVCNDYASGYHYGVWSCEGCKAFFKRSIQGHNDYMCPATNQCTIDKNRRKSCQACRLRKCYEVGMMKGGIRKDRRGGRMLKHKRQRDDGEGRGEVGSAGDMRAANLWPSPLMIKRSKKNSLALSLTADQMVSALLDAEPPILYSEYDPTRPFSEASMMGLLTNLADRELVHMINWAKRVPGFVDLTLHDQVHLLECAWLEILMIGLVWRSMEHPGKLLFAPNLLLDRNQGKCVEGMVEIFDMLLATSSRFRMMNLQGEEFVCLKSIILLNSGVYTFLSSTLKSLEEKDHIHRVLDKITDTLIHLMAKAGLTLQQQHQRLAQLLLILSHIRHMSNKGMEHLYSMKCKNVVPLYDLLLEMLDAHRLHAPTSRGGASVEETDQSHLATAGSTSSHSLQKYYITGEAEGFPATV

Structure (SMILES) | melting point | Estrogen Receptor Affinity (RBA) (estrogen receptor) | uterine wet weight, 10 μG [1] | uterine wet weight, 100 μG [1] | % Activation (Ishikawa cells) | uterine wet weight, 1 μG 17β-estradiol ([1]; 1 uG 17β-estradiol daily ip, positive control of each experiment) | uterine wet weight, 100 μG + 1 μG 17β-estradiol [1]
O=C(c1ccc(OCCN2CCCCC2)cc1)c1c(-c2ccc(O)cc2)sc2cc(O)ccc12 [Raloxifene] |  |  | 47.5 mg | 43.2 mg | 5% |  | 
Cc1c(-c2ccc(O)cc2)n(Cc2ccc(C#CCN3CCCC3)cc2)c2ccc(O)cc12 | 174 to 176 °C |  |  |  |  |  | 
CC/C(=C(\c1ccccc1)c1ccc(OCCN(C)C)cc1)c1ccccc1 [Tamoxifen] |  |  | 69.6 mg | 71.4 mg | 0% |  | 
C[C@]12CC[C@@H]3c4ccc(O)cc4CC[C@H]3[C@@H]1CC[C@@H]2O [17β-estradiol] |  |  |  |  |  | 1 μG 17β-estradiol = 98.2 mg and 1 μG 17β-estradiol = 90.2 mg and 1 μg 17β-estradiol = 82.8 mg | 

Further lines, with some results ahead:

melting point | Estrogen Receptor Affinity (RBA) (estrogen receptor) | Structure (SMILES) | uterine wet weight, 10 μG [1] | uterine wet weight, 100 μG [1] | % Activation (Ishikawa cells) | uterine wet weight, 1 μG 17β-estradiol ([1]; 1 uG 17β-estradiol daily ip, positive control of each experiment) | uterine wet weight, 100 μG + 1 μG 17β-estradiol [1]
 | 53 | Cc1c(-c2ccc(O)cc2)n(Cc2ccc(C#CCN(C)C)cc2)c2ccc(O)cc12 [Example 4, 2-(4-Hydroxy-phenyl)-3-methyl-1-[4-(3-N,N-dimethyl-1-yl-prop-1-ynyl)-benzyl]-1H-indol-5-ol] | 56.0 mg | 84.0 mg |  |  | 77.6 mg
 | 23 | Cc1c(-c2ccc(O)cc2)n(Cc2ccc(C#CCN3CCCCC3)cc2)c2ccc(O)cc12 [Example 5, 2-(4-Hydroxy-phenyl)-3-methyl-1-[4-(3-piperidin-1-yl-prop-1-vinyl)-benzyl]-1H-indol-5-ol] | 55.6 mg | 71.3 mg |  |  | 66.8 mg
